Test results from ChEMBL document CHEMBL1201862, “PubChem BioAssay data set” (2004).
Activity calls are given as the source filed them.

What was measured:
[1] = test system: Escherichia coli; assay: microbe, parasite or virus in culture
[2] = target: Induced myeloid leukemia cell differentiation protein Mcl-1 (Homo sapiens, UniProt Q07820); assay type: functional
[3] = target: Heat shock protein HSP 90-alpha (Homo sapiens, UniProt P07900); assay type: functional, organism-based
[4] = microbe, parasite or virus in culture; assay type: functional; conditions: Mycobacterium tuberculosis
[5] = target: T1, Replicative DNA helicase DnaB (Mycobacterium tuberculosis, UniProt P9WMR3); assay: DnaB intein splicing inhibitors, dose response, biochemical, cell-free fluorescence (AID 449749); assay type: functional
T1 sequence (P9WMR3 whole entry): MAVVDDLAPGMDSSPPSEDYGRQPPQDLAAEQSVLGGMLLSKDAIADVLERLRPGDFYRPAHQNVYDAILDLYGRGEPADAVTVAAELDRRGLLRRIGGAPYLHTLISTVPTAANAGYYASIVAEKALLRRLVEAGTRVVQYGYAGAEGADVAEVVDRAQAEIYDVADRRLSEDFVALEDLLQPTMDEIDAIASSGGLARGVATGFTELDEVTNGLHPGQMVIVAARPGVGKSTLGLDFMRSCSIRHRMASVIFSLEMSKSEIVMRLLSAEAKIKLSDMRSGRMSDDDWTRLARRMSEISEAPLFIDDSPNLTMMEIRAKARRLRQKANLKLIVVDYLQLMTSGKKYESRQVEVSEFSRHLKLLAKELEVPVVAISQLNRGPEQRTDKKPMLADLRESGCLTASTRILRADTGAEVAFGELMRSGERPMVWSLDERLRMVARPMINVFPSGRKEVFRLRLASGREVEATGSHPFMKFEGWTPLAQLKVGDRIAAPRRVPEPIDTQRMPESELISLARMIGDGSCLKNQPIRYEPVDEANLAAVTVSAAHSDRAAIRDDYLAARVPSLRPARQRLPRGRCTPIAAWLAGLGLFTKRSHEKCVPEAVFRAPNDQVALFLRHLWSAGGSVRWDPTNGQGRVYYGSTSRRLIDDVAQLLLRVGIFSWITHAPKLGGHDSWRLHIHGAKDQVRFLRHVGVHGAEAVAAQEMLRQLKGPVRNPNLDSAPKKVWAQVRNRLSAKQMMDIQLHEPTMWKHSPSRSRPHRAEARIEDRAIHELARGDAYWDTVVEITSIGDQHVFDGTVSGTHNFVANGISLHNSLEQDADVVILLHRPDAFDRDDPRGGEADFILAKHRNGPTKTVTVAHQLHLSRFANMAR

[6] = test system: HEK293; assay: cells; conditions: Homo sapiens
[7] = target: T2, Microphthalmia-associated transcription factor (Homo sapiens, UniProt O75030); assay: TRPM1 promoter luciferase signal decrease, dose response, MITF inhibitor project, cell-based, SK-MEL-5, cherry-picked, set 3 (AID 493073); assay type: functional
T2 sequence (O75030 whole entry): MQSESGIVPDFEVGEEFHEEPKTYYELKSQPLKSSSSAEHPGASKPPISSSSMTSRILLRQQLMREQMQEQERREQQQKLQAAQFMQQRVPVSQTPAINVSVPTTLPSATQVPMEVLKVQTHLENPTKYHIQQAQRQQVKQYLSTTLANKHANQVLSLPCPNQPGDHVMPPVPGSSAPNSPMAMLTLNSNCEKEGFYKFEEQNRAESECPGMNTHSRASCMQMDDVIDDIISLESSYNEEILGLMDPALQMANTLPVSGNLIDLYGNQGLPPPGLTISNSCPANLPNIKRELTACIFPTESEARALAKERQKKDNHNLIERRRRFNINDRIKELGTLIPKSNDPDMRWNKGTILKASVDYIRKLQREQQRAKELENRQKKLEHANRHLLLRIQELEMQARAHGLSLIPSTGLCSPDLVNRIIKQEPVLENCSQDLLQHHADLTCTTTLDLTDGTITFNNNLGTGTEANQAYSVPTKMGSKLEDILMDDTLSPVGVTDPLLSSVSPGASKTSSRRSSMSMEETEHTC

[8] = target: T3, Protein RecA (Mycobacterium tuberculosis, UniProt P9WHJ3); assay: Fluorescence Cell-Free Homogeneous Dose Retest to Identify Inhibitors of RecA-Intein Splicing Activity. [Related pubchem assays (depositor defined):AID2097, AID2223, AID489010, AID492950]; assay type: functional
T3 sequence (P9WHJ3 whole entry): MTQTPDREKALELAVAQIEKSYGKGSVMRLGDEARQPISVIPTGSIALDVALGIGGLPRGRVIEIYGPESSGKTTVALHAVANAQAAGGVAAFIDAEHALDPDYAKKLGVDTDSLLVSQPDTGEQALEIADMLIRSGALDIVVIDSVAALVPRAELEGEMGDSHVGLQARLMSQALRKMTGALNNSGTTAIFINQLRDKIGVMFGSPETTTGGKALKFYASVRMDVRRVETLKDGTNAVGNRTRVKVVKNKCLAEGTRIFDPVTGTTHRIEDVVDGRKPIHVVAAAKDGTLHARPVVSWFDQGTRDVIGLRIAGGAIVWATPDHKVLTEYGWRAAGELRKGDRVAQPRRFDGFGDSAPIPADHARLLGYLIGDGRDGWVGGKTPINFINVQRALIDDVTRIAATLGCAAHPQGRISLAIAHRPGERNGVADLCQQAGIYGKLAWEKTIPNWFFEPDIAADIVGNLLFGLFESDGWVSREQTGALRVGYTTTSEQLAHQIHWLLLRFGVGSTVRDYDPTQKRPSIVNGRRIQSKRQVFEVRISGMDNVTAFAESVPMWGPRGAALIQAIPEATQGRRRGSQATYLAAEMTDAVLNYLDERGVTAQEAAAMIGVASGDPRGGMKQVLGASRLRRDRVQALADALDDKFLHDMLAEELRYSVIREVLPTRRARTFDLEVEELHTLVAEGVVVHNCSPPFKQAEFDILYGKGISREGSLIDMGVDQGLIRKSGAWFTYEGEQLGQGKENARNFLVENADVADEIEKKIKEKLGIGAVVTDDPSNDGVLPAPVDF

[9] = HepG2 cell cytotoxicity, dose response, cytotoxicity control for non-replicating M. tuberculosis project (AID 489018); assay type: functional; conditions: Mycobacterium tuberculosis
[10] = THP-1 cell cytotoxicity, dose response, cytotoxicity control for non-replicating M. tuberculosis project (AID 489025); assay type: functional
[11] = cells; assay type: functional
[12] = test system: HEK293; assay: cells; conditions: Homo sapiens; remark: listed apart in the source
[13] = test system: HeLa; assay: HeLa cell cytotoxicity, dose response, cytotoxicity control for MITF activator project, CellTiter-Glo luminescence, cherry-pick samples (AID 540259); assay type: functional, cell-based; conditions: Homo sapiens
[14] = target: T4, Sentrin-specific protease 6 (Homo sapiens, UniProt Q9GZR1); assay: SAR Analysis of small molecule inhibitors of Sentrin-specific protease 6 (SENP6) using a Luminescent assay. [Related pubchem assays (depositor defined):AID2582, AID2599]; assay type: functional
T4 sequence (Q9GZR1 whole entry): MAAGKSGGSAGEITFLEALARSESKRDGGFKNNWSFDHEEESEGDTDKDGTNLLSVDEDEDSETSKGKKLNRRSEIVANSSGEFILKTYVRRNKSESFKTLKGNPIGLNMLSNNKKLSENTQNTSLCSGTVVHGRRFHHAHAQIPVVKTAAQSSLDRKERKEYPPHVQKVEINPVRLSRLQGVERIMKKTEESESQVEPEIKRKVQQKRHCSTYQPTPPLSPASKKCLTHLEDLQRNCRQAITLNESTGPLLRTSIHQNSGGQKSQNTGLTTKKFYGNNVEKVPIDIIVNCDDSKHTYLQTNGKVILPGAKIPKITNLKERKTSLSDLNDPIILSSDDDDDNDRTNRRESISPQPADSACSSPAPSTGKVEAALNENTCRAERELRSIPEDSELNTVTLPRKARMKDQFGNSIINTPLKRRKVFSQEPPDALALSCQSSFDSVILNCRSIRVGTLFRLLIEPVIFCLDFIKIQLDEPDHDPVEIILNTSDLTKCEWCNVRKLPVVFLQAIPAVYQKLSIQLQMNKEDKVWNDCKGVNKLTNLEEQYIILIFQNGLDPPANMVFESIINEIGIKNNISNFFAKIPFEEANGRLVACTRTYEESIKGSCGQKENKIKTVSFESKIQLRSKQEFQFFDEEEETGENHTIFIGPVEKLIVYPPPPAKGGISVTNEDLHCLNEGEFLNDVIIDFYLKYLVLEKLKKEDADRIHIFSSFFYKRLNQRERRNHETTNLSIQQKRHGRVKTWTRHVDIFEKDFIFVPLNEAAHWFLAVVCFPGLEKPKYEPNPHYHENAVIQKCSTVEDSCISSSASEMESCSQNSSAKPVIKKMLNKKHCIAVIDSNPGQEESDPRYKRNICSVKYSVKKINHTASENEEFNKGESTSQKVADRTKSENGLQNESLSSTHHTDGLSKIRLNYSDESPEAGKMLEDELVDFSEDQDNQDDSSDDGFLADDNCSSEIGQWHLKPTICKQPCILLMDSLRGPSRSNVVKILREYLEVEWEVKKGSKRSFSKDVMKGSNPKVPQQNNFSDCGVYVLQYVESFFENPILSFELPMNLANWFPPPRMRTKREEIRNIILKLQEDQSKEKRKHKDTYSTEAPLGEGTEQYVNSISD

[15] = target: T5, Sentrin-specific protease 8 (Homo sapiens, UniProt Q96LD8); assay: SENP8 protease inhibitors, SAR follow-up, biochemical, luminescence (AID 504501); assay type: functional
T5 sequence (Q96LD8 whole entry): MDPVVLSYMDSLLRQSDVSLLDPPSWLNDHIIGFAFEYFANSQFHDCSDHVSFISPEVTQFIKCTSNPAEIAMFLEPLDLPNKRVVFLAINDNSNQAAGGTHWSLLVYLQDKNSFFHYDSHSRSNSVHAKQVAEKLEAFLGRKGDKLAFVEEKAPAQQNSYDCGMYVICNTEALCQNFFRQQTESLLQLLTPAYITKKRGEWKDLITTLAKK

[16] = target: T6, Caspase-3 (Homo sapiens, UniProt P42574); assay: SAR Analysis of small molecule inhibitors of Sentrin-specific proteases (SENPs) using a Caspase-3 Selectivity assay. [Related pubchem assays (depositor defined):AID2540, AID2599, AID434973, AID489001]; assay type: functional
T6 sequence (P42574 whole entry): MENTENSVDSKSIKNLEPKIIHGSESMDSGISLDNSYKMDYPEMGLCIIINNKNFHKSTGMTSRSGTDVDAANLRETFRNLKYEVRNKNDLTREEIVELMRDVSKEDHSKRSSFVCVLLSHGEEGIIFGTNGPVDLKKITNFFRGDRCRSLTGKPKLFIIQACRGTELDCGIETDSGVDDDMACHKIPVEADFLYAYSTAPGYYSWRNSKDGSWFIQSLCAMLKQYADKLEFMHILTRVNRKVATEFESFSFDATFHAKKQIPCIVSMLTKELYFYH

[17] = target: T7, Sentrin-specific protease 7 (Homo sapiens, UniProt Q9BQF6); assay: SENP7 protease inhibitors, SAR follow-up, biochemical, luminescence (AID 504497); assay type: functional
T7 sequence (Q9BQF6 whole entry): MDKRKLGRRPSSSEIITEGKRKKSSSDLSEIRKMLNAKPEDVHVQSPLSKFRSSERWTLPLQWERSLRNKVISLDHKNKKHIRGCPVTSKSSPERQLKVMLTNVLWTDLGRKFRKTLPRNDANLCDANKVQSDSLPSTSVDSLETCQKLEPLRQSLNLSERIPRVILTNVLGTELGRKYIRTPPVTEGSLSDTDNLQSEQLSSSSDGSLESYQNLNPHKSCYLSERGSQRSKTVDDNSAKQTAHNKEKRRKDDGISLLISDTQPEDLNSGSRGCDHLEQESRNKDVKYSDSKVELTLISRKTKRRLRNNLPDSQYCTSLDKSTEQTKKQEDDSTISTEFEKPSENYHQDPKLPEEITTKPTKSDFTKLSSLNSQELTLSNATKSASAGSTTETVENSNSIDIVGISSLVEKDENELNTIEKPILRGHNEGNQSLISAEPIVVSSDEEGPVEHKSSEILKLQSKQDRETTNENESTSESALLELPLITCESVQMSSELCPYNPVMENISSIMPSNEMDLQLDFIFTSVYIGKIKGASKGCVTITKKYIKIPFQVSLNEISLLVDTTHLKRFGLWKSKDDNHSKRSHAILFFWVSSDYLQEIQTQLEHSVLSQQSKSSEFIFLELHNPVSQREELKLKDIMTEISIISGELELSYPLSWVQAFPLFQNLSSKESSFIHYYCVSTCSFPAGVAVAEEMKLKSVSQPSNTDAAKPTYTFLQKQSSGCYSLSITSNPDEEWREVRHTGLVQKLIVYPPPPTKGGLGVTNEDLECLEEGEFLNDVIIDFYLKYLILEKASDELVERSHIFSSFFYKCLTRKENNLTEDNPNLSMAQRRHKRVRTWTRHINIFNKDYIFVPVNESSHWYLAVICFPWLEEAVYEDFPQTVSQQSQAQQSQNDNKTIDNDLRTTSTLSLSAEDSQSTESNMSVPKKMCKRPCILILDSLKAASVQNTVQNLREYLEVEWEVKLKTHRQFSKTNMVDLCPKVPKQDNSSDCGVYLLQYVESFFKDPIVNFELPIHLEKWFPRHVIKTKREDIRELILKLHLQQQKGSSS

Sequence of Induced myeloid leukemia cell differentiation protein Mcl-1 (Q07820 whole entry): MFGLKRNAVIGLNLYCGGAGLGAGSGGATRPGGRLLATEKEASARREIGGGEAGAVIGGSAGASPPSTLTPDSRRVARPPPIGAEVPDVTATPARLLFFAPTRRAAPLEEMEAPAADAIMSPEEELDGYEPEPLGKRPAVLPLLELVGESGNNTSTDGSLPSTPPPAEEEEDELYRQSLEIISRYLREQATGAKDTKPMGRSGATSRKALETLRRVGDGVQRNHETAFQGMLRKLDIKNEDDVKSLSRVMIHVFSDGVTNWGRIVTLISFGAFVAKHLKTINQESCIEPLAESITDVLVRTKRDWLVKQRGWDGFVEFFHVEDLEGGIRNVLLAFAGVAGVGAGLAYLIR

With `COc1ccc(OC2OC3COC(c4ccco4)OC3C(O)C2NC(C)=O)cc1` (centres undefined) the AC50 [1] was 32.1 µM (active).
With `CC(C(=O)NC1CCCC1)N1CCN(S(=O)(=O)c2ccc(C(C)(C)C)cc2)CC1` (centres undefined) the AC50 [1] was 70.4 µM (active).
With `Cc1ccc(CNC(=O)C2CCCN2C(=O)Nc2ccccc2)cc1` (centres undefined) the AC50 [1] was 33.2 µM (active).
In the case of `O=C1Nc2ccc(Br)cc2/C1=C/C(=O)c1ccc2c(c1)OCO2`, the IC50 [2] is reported as 1.29 µM (active), the AC50 [3] is reported as 2.17 µM (active) and the CC50 [4] is reported as 32.2 µM (active). For the same molecule, the AC50 [5] was 36.3 µM (active), the EC50 [6] was > 59.6 µM (inactive) and the AC50 [7] was 25.5 µM (active). The EC50 [8] was 1.46 µM (active), the CC50 [9] was 18.9 µM (active) and the CC50 [10] was 11.9 µM (active). The IC50 [11] was 15.2 µM (active) and the EC50 [12] was > 59.6 µM (inactive).
For `CN(C1=NC(=O)/C(=C2\C(=O)Nc3ccccc32)S1)c1ccc(O)cc1`, the AC50 [13] was 45.4 µM (active).
With `Ic1ccccc1-c1nc(/C=C/c2ccccc2)no1` the IC50 [14] was 13 µM (active), the IC50 [15] was 15 µM (active) and the IC50 [16] was 18 µM (active). For the same molecule, the IC50 [17] was 5 µM (active).
For `N#Cc1c(NC(=O)c2cnn3cc(Br)cnc23)sc2c1CCC2`, the IC50 [14] was > 99 µM (inactive), the IC50 [15] was > 99 µM (inactive) and the IC50 [16] was > 99 µM (inactive). For the same molecule, the IC50 [17] was > 99 µM (inactive).
In the case of `COc1ccc2[nH]c(-c3ccccc3)cc2c1`, the AC50 [13] is reported as 55.1 µM (active).
